14 molecules from PubChem BioAssay (NCI) can be followed below.

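Interpolation was linear, between the two tested concentrations surrounding the appropriate level; five concentrations were tested over 48 hours in 96-well plates. GI50 is the concentration that inhibits growth by half. Definition used: TGI = concentration required for complete inhibition of growth.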

What is called TGI is the concentration giving total growth inhibition. Low readings indicate more potent growth arrest, high ones less potent growth arrest. The term GI50 denotes the concentration giving 50% growth inhibition.

Some test systems named below: EKVX NSCLC; CAKI-1 renal; NCI-H460 lung; OVCAR-3 ovarian; IGROV1 ovarian; LOX IMVI melanoma; TK-10 renal; OVCAR-5 ovarian; MDA-MB-435; HS 578T breast.
What all share (assay): DTP human tumour cell line panel, 48 h

On to `Fc1ccc(C2SCc3nc4ccccc4n32)c(F)c1` (configuration not stated), for which the TGI in the assay with EKVX NSCLC, with CAKI-1 renal, in the assay with NCI-H460 lung, in the assay on OVCAR-3 ovarian, in the assay on IGROV1 ovarian and with LOX IMVI melanoma was more than 100 µM throughout. Moreover, the total growth inhibition concentration (TGI) in the assay with TK-10 renal and in the assay on OVCAR-5 ovarian was more than 100 µM each time.
Turning to `Clc1ccc(Nc2nc3ccccc3nc2-c2cccs2)cc1Cl`, the TGI with EKVX NSCLC, with NCI-H460 lung, in the assay on OVCAR-3 ovarian, in the assay with TK-10 renal and in the assay with OVCAR-5 ovarian was more than 100 µM throughout.
As to `COc1ccc(-c2cc(Cc3cccs3)c(=O)[nH]n2)cc1`, the TGI in the assay with EKVX NSCLC, with OVCAR-3 ovarian, in the assay on IGROV1 ovarian, in the assay on TK-10 renal and with OVCAR-5 ovarian was more than 100 µM in each case.
For the molecule `CCCCCCCCCCCCCCCCCC1=NCCN1CCOC1=C(Cl)C(=O)c2ccccc2C1=O`, the GI50 in the assay with MDA-MB-435 was 2.05 µM; in the assay on EKVX NSCLC, 1.46 µM; in the assay on CAKI-1 renal, 1.57 µM; with NCI-H460 lung it was 3.33 µM; with OVCAR-3 ovarian, 1.85 µM; in the assay on TK-10 renal, 2.19 µM. For the same molecule, the GI50 in the assay with OVCAR-5 ovarian is 2.29 µM. In addition, the TGI with MDA-MB-435 turned out to be 4.02 µM; in the assay with EKVX NSCLC, 3.32 µM; in the assay on CAKI-1 renal it was 2.98 µM; in the assay with NCI-H460 lung, 16.1 µM; with OVCAR-3 ovarian, 3.34 µM; in the assay on TK-10 renal, 3.76 µM. Further, in the assay with OVCAR-5 ovarian, the TGI turned out to be 5.27 µM.
Turning to `O=C(/C=C\c1cccc([N+](=O)[O-])c1)/C=C/c1cccc([N+](=O)[O-])c1`, the GI50 was 2.79 µM in the assay on MDA-MB-435; more than 100 µM in the assay with EKVX NSCLC; 4.4 µM with CAKI-1 renal; 6.61 µM in the assay on NCI-H460 lung; 2.18 µM in the assay on OVCAR-3 ovarian; 2.44 µM in the assay on IGROV1 ovarian. The values for the GI50 in the assay with LOX IMVI melanoma, in the assay with TK-10 renal and in the assay on OVCAR-5 ovarian were 1.73 µM, 2.97 µM and 19.7 µM, respectively. The TGI was 12.4 µM with MDA-MB-435; more than 100 µM in the assay on EKVX NSCLC; more than 100 µM with CAKI-1 renal; more than 100 µM in the assay with NCI-H460 lung; 4.32 µM in the assay with OVCAR-3 ovarian; 6.3 µM in the assay with IGROV1 ovarian. The results for the TGI in the assay on LOX IMVI melanoma, in the assay with TK-10 renal and in the assay with OVCAR-5 ovarian were 4.56 µM, 8.7 µM and more than 100 µM, respectively.
On to `C#C[C@]1(O)CCCC2=CC(=O)CC[C@@]21C`, for which the TGI in the assay on EKVX NSCLC, with NCI-H460 lung, in the assay with OVCAR-3 ovarian, in the assay on IGROV1 ovarian, in the assay with TK-10 renal and in the assay with OVCAR-5 ovarian was more than 100 µM in each case.
As for `Cc1ccc(-c2nnc(-c3nn(-c4ccccc4)c4nc5ccccc5nc34)o2)cc1`, the total growth inhibition concentration (TGI) is more than 100 µM in the assay with EKVX NSCLC; 26.9 µM in the assay on CAKI-1 renal; 41.6 µM in the assay with NCI-H460 lung; 28.7 µM in the assay with OVCAR-3 ovarian; 41.7 µM with IGROV1 ovarian; 40.9 µM in the assay on LOX IMVI melanoma. Further, the TGI is 31.2 µM with TK-10 renal and more than 100 µM in the assay with OVCAR-5 ovarian.
With `O=C1CC(c2c[nH]c3ccccc23)C(=O)N1` (configuration not stated), the TGI with EKVX NSCLC, with CAKI-1 renal, in the assay on NCI-H460 lung, in the assay on OVCAR-3 ovarian, in the assay on IGROV1 ovarian and in the assay with TK-10 renal was more than 100 µM each time. Moreover, the TGI in the assay on OVCAR-5 ovarian was more than 100 µM.
For the molecule `O=C1C(=C([O-])c2ccccc2)C(=O)c2ccccc21.O=C1C(=C([O-])c2ccccc2)C(=O)c2ccccc21.[Fe+2]`, the GI50 was more than 100 µM in the assay on CAKI-1 renal; 89.5 µM with OVCAR-3 ovarian; more than 100 µM in the assay with IGROV1 ovarian; 6.33 µM with LOX IMVI melanoma; 88.3 µM in the assay on TK-10 renal; more than 100 µM in the assay on OVCAR-5 ovarian. In addition, the TGI in the assay on CAKI-1 renal was more than 100 µM; with OVCAR-3 ovarian, more than 100 µM; with IGROV1 ovarian it was more than 100 µM; with LOX IMVI melanoma, 23.6 µM; with TK-10 renal it was more than 100 µM; with OVCAR-5 ovarian, more than 100 µM.
For the molecule `COc1cc(N2C(=O)[C@H](O)C2c2ccc(SC)cc2)cc(OC)c1OC` (some centres not stated), the GI50 with EKVX NSCLC, in the assay on CAKI-1 renal, in the assay on NCI-H460 lung, with OVCAR-3 ovarian, in the assay on IGROV1 ovarian and in the assay with LOX IMVI melanoma was less than 0.01 µM each time. In addition, the GI50 was less than 0.01 µM in the assay with HS 578T breast, 23.2 µM in the assay with TK-10 renal and 0.0237 µM in the assay with OVCAR-5 ovarian. Moreover, the TGI in the assay with EKVX NSCLC is more than 100 µM; with CAKI-1 renal, more than 100 µM; in the assay with NCI-H460 lung, 13.1 µM; in the assay on OVCAR-3 ovarian, 0.0138 µM; with IGROV1 ovarian it was more than 100 µM; in the assay on LOX IMVI melanoma, more than 100 µM. Also, the TGI in the assay on HS 578T breast, in the assay on TK-10 renal and in the assay with OVCAR-5 ovarian was more than 100 µM in each case.
As to `CC/C=C\C/C=C\C/C=C\CCCCCCCC(=O)OCC(O)CO` (configuration not stated), the TGI with EKVX NSCLC is more than 100 µM; with CAKI-1 renal, 59.8 µM; with NCI-H460 lung, more than 100 µM; in the assay on OVCAR-3 ovarian, more than 74.5 µM; with IGROV1 ovarian it was more than 100 µM; with LOX IMVI melanoma, more than 59.6 µM. Also, the TGI in the assay on TK-10 renal and in the assay on OVCAR-5 ovarian was more than 100 µM throughout.
Regarding `Cc1ccc2c(C3Cc4ccccc4N3C(=O)/C=C\C(=O)O)c(C)[nH]c2c1` (configuration not stated), the TGI was more than 100 µM in the assay with EKVX NSCLC; more than 100 µM with CAKI-1 renal; more than 100 µM with NCI-H460 lung; 66.8 µM with OVCAR-3 ovarian; more than 100 µM in the assay on IGROV1 ovarian; more than 100 µM with LOX IMVI melanoma. In addition, the TGI in the assay with TK-10 renal and in the assay on OVCAR-5 ovarian was more than 100 µM in each case.
Take `COc1cc(C(=O)C/C(CCC(=O)Nc2ccccc2[N+](=O)[O-])=N\NC(N)=O)ccc1O`: the TGI with EKVX NSCLC, in the assay on CAKI-1 renal, in the assay on NCI-H460 lung, in the assay with OVCAR-3 ovarian, with IGROV1 ovarian and with LOX IMVI melanoma was more than 100 µM throughout. For the same molecule, the TGI in the assay with TK-10 renal and in the assay with OVCAR-5 ovarian was more than 100 µM in each case.
With `N#CC(=C1C=CC(=NO)C=C1)c1ccc(Cl)cc1`, the TGI in the assay on CAKI-1 renal worked out at 29 µM; with NCI-H460 lung it was 56.4 µM; with OVCAR-3 ovarian it was 13.2 µM; in the assay on IGROV1 ovarian, 56.1 µM; with LOX IMVI melanoma, 12 µM; in the assay on TK-10 renal, 75 µM. This molecule registered a TGI with OVCAR-5 ovarian of 28.8 µM.
